From patent US9956293B2, “Targeted therapeutics” (Madrigal Pharmaceuticals, Inc., priority 2014, dated 2018) come the findings set out here.

Data set [1] deals with HER2. As to the kind of experiment: HER2 degradation assay with BT-474 cell line (Example 12, FACS). It counts as cell-based. The note with it: Homo sapiens, BT-474; SDC-TRAPs of the 43rd table.
Data set [2] in a line: Stability in human plasma (Example 5). It counts as in vitro ADME. The procedure: (§1) This example illustrates a method for assessing the stability of SDC-TRAP of the invention in human and mouse plasma.
(§2) SDC-TRAP-0022 and SDC-TRAP-0028 were incubated in human and mouse plasma for 2 h at 37° C. and assayed for integrity at 0.25, 0.5, 1 and 2 h. The values reported below are the remaining of the parent compound at the end of the 2 h incubation period.

Data set [3] deals with HER2. As to the kind of experiment: HER2 degradation in BT-474 cells (Example 3, Western blot / in-cell imaging). It counts as cell-based, human. The note with it: Homo sapiens.
Procedure: BT-474 cells are plated in the interior 60 wells of a 96 well black clear bottom plate (20,000 cells/well) in DMEM medium, with DMEM media in the surrounding 36 wells, and incubated at 37° C. with 5% CO2 overnight. On the second day, concentration response curve source plates are produced (10 point, 3-fold dilution of compounds in DMSO) followed by a 1:30 dilution in an intermediate dilution plate containing DMEM. Compound is transferred from the intermediate plate to the cell plate at a dilution of 1:10.
Cells are then fixed in 4% phosphate-buffered paraformaldehyde for 30 minutes at room temperature and then permeabilized by washing five times with 0.1% Triton X-100 in PBS for 5 minutes at room temperature on a shaker. […] Cells are washed 5 times with 0.1% Tween-20 in PBS for 5 minutes at room temperature on a shaker and imaged on a LI-COR Odyssey imaging station. The raw data is normalized to DRAQ5 and the HER2 EC50 is calculated using XLfit™.
Data set [4] can be described thus: Stability in mouse plasma (Example 5). It counts as in vitro ADME. The procedure:
as §1, §2

The conditions of data set [5]: mouse, in vivo.
Procedure: (§3) Tissue Distribution Extraction Procedure for SDC-TRAP Tumor Samples
(§4) A 150 ng/mL solution of SDC-TRAP-0002 in methanol was prepared using an internal spiking solution (500 μg/mL SDC-TRAP-0002 in DMSO). Using the 10 mM stock solutions of the SDC-TRAP molecule and its Hsp90i binding moiety and effector moiety in DMSO, spiking solutions were prepared at 0.025, 0.05, 0.1, 0.5, 1, 5, 10, 50, 100, 250, and 500 μM in DMSO. 5 μL of each spiking solution was added to a 96-deep well plate.
(§5) Quality control standards were prepared from 5 μL of 0.1, 1, and 10 μM calibration standard spiking solution added in triplicate into 96-deep well plate and adding 50 μL of matrix (plasma or homogenized tumor).
(§6) To prepare test samples, test plasma was diluted as needed using blank plasma. Tumor samples were pulverized in liquid nitrogen, weighed, and homogenized in PBS at 5× volume to sample weight. 50 μL of unknown plasma or homogenized tumor sample was mixed with 5 μL of DMSO. The samples were extracted by precipitating calibration standards, QC standards, and unknown samples with 200 μL of internal standard solution. The samples were mixed by vortex at room temperature for approximately 1.5 minutes, then centrifuge at 2-8° C. 150 μL of supernatant was collected and 25 μL of water added. Samples were mixed and analyzed by LC-MS/MS.
(§7) Samples of plasma, heart and tumor were excised from a euthanized mouse, homogenized in PBS at 5 times tissue weight and diluted in 5 μL DMSO/50 μL sample. Prior to analysis, 55 μL samples and calibration standards were precipitated in 200 μL methanol in 96-well plates. Samples were mixed on a vortex mixer for 1.5 minutes at 1500 rpm at room temperature, then centrifuged at 4400 rpm for 10 minutes at 8° C. 150 μL of each supernatant was transferred to a well of a new 96-well plate, and 25 μL of water was added and mixed with the sample. […] For the analysis of samples from female SCID mice, a gradient of solvent A (water/0.1% formic acid) and B (acetonitrile/0.1% formic acid) was used as in Table A below.
The nature of a further data set: in vivo. As to conditions: mouse.
Data set [6] deals with MCF-7 breast cancer cells. As to the kind of experiment: Mouse xenograft efficacy in an MCF-7 breast cancer model. It counts as in vivo. As to conditions: 150 or 100 mg/kg/1×wk; FIG. 8. As to the method: Mouse Xenograft Efficacy Data in an MCF-7 Breast Cancer Model
MCF-7 breast cancer cells were purchased from ATCC. […] Fetal bovine serum was then added to the medium. The final concentration of fetal bovine serum was 10%. Cells were cultured at 37° C. and 5% CO2.
Mice that were not put on treatment were euthanized. Animals were sourced through CRL (Wilmington, Mass.).

Data set [7] in a line: Artificial membrane permeability assay (PAMPA) (Example 36). It counts as in vitro ADME. (The PAMPA barrier holds no transporters, so it reflects passive diffusion.)
Procedure: In order to test the ability SDC-TRAP molecules of the invention to enter cells, an artificial membrane permeability assay (“PAMPA”) was used. […] LC/MS was used in conjunction with PAMPA assays to determine the ability of the SDC-TRAP molecules of the invention to permeate cells.
Pre-coated PAMPA plates were warmed to room temperature for at least 30 minutes prior to adding assay components.
Stock solutions were prepared with the SDC-TRAP molecules to be tested. In order to make a working solution, either 50 μL of 100 μM Stock in DMSO+950 μL of PBS or 50 μL of 200 μM stock was added to 96 deep well plate, resulting in a 5 μM final concentration or a 10 μM final concentration, respectively. 300 μL of the working solution containing each compound to be tested was added to the appropriate well of a donor PAMPA plate. 200 μL of PBS was added into the corresponding wells of an acceptor PAMPA plates.
The acceptor plate was lowered onto the donor plate and allowed to incubate for five hours. After five hours, a 50 μL aliquot was removed from each well of each plate and added into a new 96 deep-well plate.
100 μL of methanol containing an internal standard was added to each aliquot and analyzed by LC/MS. The internal standard was 150 ng/ml SDC-TRAP-0002.
In order to calculate the permeability for each SDC-TRAP molecule and the control molecules, the following formula was used:
The test system of data set [8] is human breast cancer cell line BT-474. Description: Cytotoxicity assay with cancer cell lines, BT-474 (Example 13). It counts as cell-based. The note with it: BT-474, 72 h, read-out: Cytotoxicity (IC50, nM) BT-474.
Procedure: (§8) Cytotoxicity Assay with Cancer Cell Lines
(§9) Cytotoxicity of SDC-TRAP molecules was determined in three cancer cell lines. […] 80 μL of CellTiter-Glo was added to each well, followed by room temperature incubation in the dark for 15 minutes. Cell was determined by luminescence. IC50 was calculated using XLfit™ software.
Data set [9] deals with human urinary bladder cancer cell line SW780. As to the kind of experiment: Cytotoxicity assay with cancer cell lines, SW780 (Example 13). It counts as cell-based. The note with it: SW780, 72 h, read-out: Cytotoxicity (IC50, nM) SW-780.
Procedure: as §8, §9
The test system of data set [10] is human urinary bladder cancer cell line RT-112. As to the kind of experiment: Cytotoxicity assay with cancer cell lines, RT-112 (Example 13). It counts as cell-based. The note with it: RT-112, 72 h, read-out: Cytotoxicity (IC50, nM) RT-112.
Procedure: as §8, §9
A short description of data set [11]: Stability in cell culture media (Example 18). It counts as in vitro ADME. As to the method: SDC-TRAP Stability in Mouse Plasma and Cell Culture Media
Mouse plasma samples were prepared according to Example 16.

The nature of data set [12]: Mouse plasma stability (Examples 16-18). It counts as in vitro ADME.
Procedure: Plasma Stability Protocol for SDC-TRAP Compounds
This solution was used to precipitate all plasma samples in the study. 200 μL was pipetted into a 96 deepwell plate over dry ice. 10 μL of 1 mM stock in DMSO was added to a 1.5 mL microfuge tube, then 990 μL of plasma. Samples were mixed by vortex, then 50 μL of each sample was added in triplicate to a 96-well plate containing internal standard solution. This was designated the 0 hour time point sample. 250 μL of the remaining plasma sample was added to each of four 96 deepwell plates—one per time point. Samples were incubated at 37° C. with gentle shaking for 0.25, 0.5, and 1 hour. After each time point, one plate of each sample was removed from the shaker and placed on wet ice for approximately 2 minutes. 50 μL plasma aliquots (in triplicate) were added to the deepwell plate containing internal standard solution. After the last time point was extracted, the 96 deepwell plate was vortexed, then centrifuged at 2-8° C. 150 μL of supernatant was collected and 25 μL of water was added. Samples were mixed and analyzed by LC-MS/MS.
The stability of seven SDC-TRAP types in mouse plasma was measured as follows. […] Each sample was mixed and divided into 250 μL aliquots, each representing time points 0, 15 minutes, 30 minutes or 1 hour. […]
Data set [13] in a line: Tissue distribution of ganetespib in female CD-1 nu/nu mice bearing RERF human NSCLC xenografts. It counts as in vivo, mouse. As to conditions: 24 hr after 50 mg/kg IV. From the text:
Tissue distribution of ganetespib in female CD-1 nu/nu mice bearing RERF human NSCLC xenografts
To confirm the distribution of ganetespib in blood, livers, kidneys, brains, hearts, lungs and tumors after IV administration of ganetespib to female CD-1 nu/nu mice bearing RERF human NSCLC xenografts, and to examine metabolic profiles of ganetespib in plasma, red blood cells, and above tissues.
Animals: female CD-1 nu/nu mice bearing RERF human NSCLC xenografts (N=3/group)
Formulation: 10% DMSO, 18% Cremophor RH40, 3.6% dextrose solution (DRD)
Bleeding time points: 5 min, 6, 24 hr
Collected tissues: blood (plasma and red blood cells (RBC)), liver, kidneys, brain, heart, lung, tumor
Protein precipitation: 50 μL of 10 times diluted plasma or RBC+150 μL ACN (10 mM NH4OAc), vortexed and centrifuged at 10000 rpm for 8 min; 150 μL supernatant+150 μL water (10 mM NH4OAc)
Protein precipitation: 100 μL homogenized tissue (1:3 tissue: PBS buffer)+100 μL ACN (10 mM NH4OAc), vortexed and centrifuged at 10000 rpm for 8 min Bioanalysis

Procedure for in vivo: as §3, §4, §5, §6, §7

Take `CCc1c2c(nc3ccc(OCC(=O)N(C)CCOCCn4ccc5cc(-n6c(O)nnc6-c6cc(C(C)C)c(O)cc6O)ccc54)cc13)-c1cc3c(c(=O)n1C2)COC(=O)C3(O)CC` (stereo not shown) [SDC-TRAP-0028, 2-((4,11-diethyl-4-hydroxy-3,14-dioxo-3,4,12,14-tetrahydro-1H-pyrano[3′,4′:6,7]indolizino[12-b]quinolin-9-yl)oxy)-N-(2-(2-(5-(3-(2,4-dihydroxy-5-isopropylphenyl)-5-hydroxy-4H-1,2,4-triazol-4-yl)-1H-indol-1-yl)ethoxy)ethyl)-N-methylacetamide]: the half-maximal inhibitory concentration (IC50) is more than 5000 nM in the data set on HER2 [1] and more than 5000 nM in the data set with HER2 [3] (BT-474 cells, read-out: HER2 (IC50)). Moreover, the “% Remaining 2 h (37° C.) HU” value in [2] (human, plasma, 2 h, 1 μM) came out at 51%; in data set [2] (human, plasma, 2 h, 10 μM) it was 65%. Also, the “% Remaining 2 h (37° C.) MO” value in data set [4] (mouse, plasma, 2 h, 1 μM) was 53%; in [4] (mouse, plasma, 2 h, 10 μM), 47%.

Consider `CCc1c2c(nc3ccc(OC(=O)N4CCC(CCn5ccc6cc(-n7c(O)nnc7-c7cc(C(C)C)c(O)cc7O)ccc65)CC4)cc13)-c1cc3c(c(=O)n1C2)COC(=O)[C@]3(O)CC` [SDC-TRAP-0063, 4,11-diethyl-4-hydroxy-3,14-dioxo-3,4,12,14-tetrahydro-1H-pyrano[3′,4′:6,7]indolizino[1,2-b]quinolin-9-yl 4-(2-(5-(3-(2,4-dihydroxy-5-isopropylphenyl)-5-hydroxy-4H-1,2,4-triazol-4-yl)-1H-indol-1-yl)ethyl)piperidine-1-carboxylate], for which the “tumor targeting (tissue distribution, in words)” value in data set [5] is “selectively targets and accumulates in tumor cells”. In the data set “in vivo” (Plasma Conc.), the concentration at 6 h is 1690 nM and the concentration at 24 h is 6.75 nM. Further, in the data set “in vivo” (Tumor/Plasma Ratio), the Kp at 6 h turned out to be 0.958, the Kp at 24 h is 30.1 and the Kp at […] amounted to 0.0122. Besides, the “tumor growth suppression (tumor volume)” value in data set [6] is on record as “greater tumor growth suppression than effector moiety irinotecan alone”.

Turning to `CCc1c2c(nc3ccc(OC(=O)N(C)CCn4ccc5cc(-n6c(O)nnc6-c6cc(C(C)C)c(O)cc6O)ccc54)cc13)-c1cc3c(c(=O)n1C2)COC(=O)C3(O)CC` (stereo not shown) [SDC-TRAP-0022, 4,11-diethyl-4-hydroxy-3,14-dioxo-3,4,12,14-tetrahydro-1H-pyrano[3′,4′:6,7]indolizino[1,2-b]quinolin-9-yl (2-(5-(3-(2,4-dihydroxy-5-isopropylphenyl)-5-hydroxy-4H-1,2,4-triazol-4-yl)-1H-indol-1-yl)ethyl)(methyl)carbamate], the “% Remaining 2 h (37° C.) HU” value in data set [2] (human plasma, 1 μM) was 29%; in [2] (human plasma, 10 μM) it was 30%. Also, the “% Remaining 2 h (37° C.) MO” value was found to be 32% in data set [4] (mouse plasma, 1 μM) and 31% in data set [4] (mouse plasma, 10 μM).

`CCc1c2c(cc3ccc(O)cc13)-c1cc3c(c(=O)n1C2)COC(=O)[C@]3(O)CC` [SN-38]: the “Mass Retention” value in [7] (incubation 5 h, the 55th table) was 38.2%; in [7] (same protocol, the 56th table), 46.6%. In addition, the Papp at 5 h was 0.643 ×10⁻⁶ cm/s in [7] (incubation 5 h, the 55th table) and 1.87 ×10⁻⁶ cm/s in [7] (same protocol, the 56th table). In addition, the results for the IC50 in data set [8], in data set [9] and in data set [10] were more than 10000 nM, 38 nM and less than 10 nM, respectively. For the same compound, the Kp at 1 h in the data set “in vivo” (Tumor/Plasma Ratio) came to 0.07. In the data set “in vivo” (Tumor/Plasma Ratio), the Kp at […] was 0.01. Further, the “Media (5 μM) % Remaining 1 h (37° C.)*” value in [11] (1 h) is listed as 82%. Further, the “Media (5 μM) % Remaining 19 h (37° C.)” value in [11] (19 h) is 52%. In addition, the “Mouse (10 μM) % Remaining 1 h (37° C.)*” value in [12] stood at 64%.

Turning to `CC(C)c1cc(-c2n[nH]c(=O)n2-c2ccc3c(ccn3C)c2)c(O)cc1O` [ganetespib, reference compound], the “Concentration of ganetespib in plasma” value in data set [13] is reported as “<LLOQ”. Also, in the data set with HER2 [3] (BT-474, read-out: IC50 of in vitro HER2 assays), the IC50 was approximately 30 nM.

For orientation: IC50 means the concentration at which inhibition is half-maximal. Broadly, the Kp is the ratio of the level in a tissue or fluid to that in plasma or blood. In general, Papp refers to the rate of passage across a membrane or cell layer, normalised by area and donor concentration.
